Test system: dopaminergic neurons
Experiment: MPTP model of Parkinson's Disease in mice (MPTP Neurodegenerative Model)
Type: in vivo
Details: recovery of TH-stained dopaminergic neurons in striatum; male CD1 mice, MPTP 30 mg/kg i.p. 5 days; test compound 4 mg/kg s.c. concurrent with MPTP plus 5 further days; sacrificed at 18 days
Method: MPTP lesioning of dopaminergic neurons in mice is used as an animal model of Parkinson's Disease. Four week old male CD1 white mice are dosed i.p. with 30 mg/kg of MPTP for 5 days. Test compounds (4 mg/kg), or vehicle, are administered s.c. along with the MPTP for 5 days, as well as for an additional 5 days following cessation of MPTP treatment. At 18 days following MPTP treatment, the animals are sacrificed and the striata dissected and perfusion-fixed. Immunostaining is performed on saggital and coronal brain sections using anti-tyrosine hydroxylase […] to quantitate survival and recovery of dopaminergic neurons. In animals treated with MPTP and vehicle, a substantial loss of functional dopaminergic terminals is observed as compared to non-lesioned animals. Lesioned animals receiving test compounds show a significant recovery of TH-stained dopaminergic neurons. This model presents quantitation for the recovery of TH-positive dopaminergic neurons in the striatum of animals receiving the compounds of the present invention. […]
Percent striatal innervation density was quantitated is in brain sections with an anti-tyrosine hydroxylase immunoglobulin, which is indicative of functional dopaminergic neurons. […]

Compound: O=C(O)[C@@H]1CCCN1S(=O)(=O)Cc1ccccc1 [Compound A, (2S)-N-(benzylsulfonyl)-2-pyrrolidinecarboxylic Acid]
- % Recovery: 24.4%

From patent US7078424B2, “N-linked sulfonamides of N-heterocyclic carboxylic acids or carboxylic acid isosteres” (GPI NIL Holdings, Inc., priority 1998, dated 2006)
